Data as given in patent US9951389B2, “Diagnostic markers for treating cell proliferative disorders with telomerase inhibitors” (Geron Corporation, priority 2012, dated 2018).
Like-named read-outs stand apart in the source and are kept apart here. [nps] = N3'→P5' thiophosphoramidate linkage

Assays:
[1] = system: animal tumor models, including ovarian and lung, both small cell and non-small cell; settings: cited from earlier work
[2] = system: epidermoid carcinoma, breast epithelium, renal carcinoma, renal adenocarcinoma, pancreatic, brain, colon, prostate, leukemia, lymphoma, myeloma, epidermal …; settings: administered alone, in vitro; cited from earlier work
[3] = system: advanced stage non-small cell lung cancer; assay: Imetelstat NSC Lung Cancer Phase II (CP14B-012) Study, progression-free survival analysis by tumor telomere length subgroup; format: in vivo, human; settings: for responsiveness (progression-free survival) of patients with short telomeres vs medium-long telomeres: telomere length subgroups by qPCR
From the text: The purpose of the NSC Phase II (CP14B-012) Study was to evaluate the efficacy and safety of imetelstat (GRN163L) as maintenance therapy for patients with advanced stage non-small cell lung cancer who have not progressed after 4 cycles of platinum based therapy. Participants were randomized in a 2:1 ratio to imetelstat plus standard of care versus standard of care alone. Participants who received bevacizumab with their induction chemotherapy continued to receive bevacizumab in this study.
The primary outcome measures were progression-free survival, defined as the time from randomization to documented disease progression or death, whichever occurred earlier, as determined by the investigator's assessment according to RECIST (Response Evaluation Criteria in Solid Tumors). The secondary outcome measures were objective response, time to all-cause mortality, and safety and tolerability (assessed by the incidence, nature, and severity of adverse events, laboratory abnormalities, and vital signs.
The patients were divided into two arms. In the experimental arm, patients received Imetelstat plus the standard of care (Bevacizumab or observation). Specifically, 9.4 mg/kg of Imetelstat (GRN163L) was given to patients over a 2 hour IV infusion on Day 1 and Day 8 of each 21 day cycle until disease progression. If administered, Bevacizumab was given on Day 1 of each 21-day cycle, with dosage and duration according to the FDA-approved Bevacizumab package insert.
In the control arm, patients received Bevacizumab or observation. If administered, Bevacizumab was given on Day 1 of each 21-day cycle, with dosage and duration according to the FDA-approved Bevacizumab package insert.
Samples were obtained from 61 of the 116 patients enrolled in the NSC Phase II (CP14B-012) Study described above. […] Each assay produced data for between 7 and 14545 foci from six regions (‘fields’) on a slide. The area and fluorescent intensity were recorded for each of the foci.
The IN Cell developer Toolbox 1.9 (GE Corp.) was utilized to quantitate the average telomere length from cells obtained from biological samples and subjected to telo-FISH. This software was used to draw lines around cell nuclei based on the location of the DAPI stain, and around cell telomeres based on the location of the telomere-specific fluorescence. Once each nucleus and telomere was encircled, the software calculated the intensity and the area of each individual telomere in the cells and determined the average telomere length for the cells derived from the biological sample according to Equation 1: 1.376×log2(intensity)−6.215×√(area) [Equation 1]. Results
This Example followed all of the procedures of Example 2 with the following changes to the qPCR protocol.

Substance | therapeutic efficacy in animal tumor models [1] | inhibitory activity in cell culture [2] | progression-free survival hazard ratio (95% CI) [3] | progression-free survival hazard ratio (95% CI) ([3]; Telo-FISH quartile split, small intensity/area (15/59, 25.4%), Example 3, Imetelstat vs control) | progression-free survival median (95% CI) ([3]; Telo-FISH quartile split, small intensity/area (15/59, 25.4%, shortest telomeres), Example 3, Imetelstat arm) | progression-free survival median (95% CI) ([3]; medium-long telomere subgroup (34 of 52 samples, 65%), second qPCR protocol of Example 4, Imetelstat arm) | progression-free survival median (95% CI) ([3]; medium-long telomere subgroup (38 of 57 samples, 67%), qPCR of Example 2, Imetelstat arm) | progression-free survival hazard ratio (95% CI) ([3]; medium-long telomere subgroup (65%), second qPCR protocol of Example 4, Imetelstat vs control) | progression-free survival events/N ([3]; medium-long telomere subgroup (67%), qPCR of Example 2, Imetelstat arm) | progression-free survival median (95% CI) ([3]; short telomere subgroup (18 of 52 samples, 35%), second qPCR protocol of Example 4, Imetelstat arm) | progression-free survival median (95% CI) ([3]; short telomere subgroup (19 of 57 samples, 33%), qPCR of Example 2, Imetelstat 9.4 mg/kg IV Day 1 and 8 of 21 day cycle plus standard of care) | progression-free survival events/N ([3]; short telomere subgroup (33%), qPCR of Example 2, Imetelstat arm) | progression-free survival hazard ratio (95% CI) ([3]; short telomere subgroup (33%), qPCR of Example 2, Imetelstat vs control arm) | progression-free survival hazard ratio (95% CI) ([3]; short telomere subgroup (35%), second qPCR protocol of Example 4, Imetelstat vs control) | responsiveness (progression-free survival) of patients with short telomeres vs medium-long telomeres ([3]; Example 2) | responsiveness (progression-free survival) of patients with short telomeres vs medium-long telomeres ([3]; Example 4)
GRN163: oligonucleotide having sequence TAGGGTTAGACAA (SEQ ID NO:3) and N3′→P5′ thiophosphoramidate (NPS) linkages (all [nps], sugars by position and methylation of C not given here) | therapeutically effective | has shown inhibitory activity | – | – | – | – | – | – | – | – | – | – | – | – | – | –
Imetelstat | – | – | 0.83 (0.36, 1.89) | 0.26 (0.06, 1.1) | 4.7 (1.41, NA) | 3.03 (1.58, 4.47) | 2.8 (1.51, 4.18) | 0.65 (0.27, 1.56) | 21/26 | 1.91 (1.22, NA) | 4.05 (1.25, NA) | 8/11 | 0.32 (0.1, 1.02) | 0.55 (0.17, 1.84) | significantly more responsive compared to controls | significantly more responsive compared to controls
